{
  "source": "patent US7125878B2",
  "about": "“Substituted pyrroline kinase inhibitors” (Janssen Pharmaceutica, priority 2002, dated 2006)",
  "note": "Values joined by “and” are separate entries in the source; they are usually repeats but may differ in a detail not shown here. Identical values can stand only once.",
  "data": [
    {"biological_target": "T1, recombinant rabbit GSK-3β protein (Oryctolagus cuniculus, UniProt G1T8E2)", "T1 construct": "purchased New England Biolabs", "T1 sequence (G1T8E2 1-432)": "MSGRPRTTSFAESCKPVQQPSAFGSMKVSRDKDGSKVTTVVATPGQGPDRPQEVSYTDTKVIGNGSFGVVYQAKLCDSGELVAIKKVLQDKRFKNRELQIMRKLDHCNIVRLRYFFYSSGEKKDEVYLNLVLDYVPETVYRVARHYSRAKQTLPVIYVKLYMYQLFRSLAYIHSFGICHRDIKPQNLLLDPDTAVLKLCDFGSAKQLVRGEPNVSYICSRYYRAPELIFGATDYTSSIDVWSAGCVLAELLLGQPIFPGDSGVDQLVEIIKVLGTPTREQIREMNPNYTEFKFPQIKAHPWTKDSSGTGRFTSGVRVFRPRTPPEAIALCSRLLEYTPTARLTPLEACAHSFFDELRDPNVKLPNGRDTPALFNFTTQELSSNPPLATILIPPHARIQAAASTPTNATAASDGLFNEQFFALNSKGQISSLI", "assay": "Glycogen Synthase Kinase-3 Assay (33P phosphorylation of PPI-2)", "type": "biochemical", "conditions": "@100 nM", "method": "(§1) Glycogen Synthase Kinase-3 Assay\n(§2) Compounds were tested for the ability to inhibit recombinant rabbit GSK-3β protein using the following protocol. The test compound was added to a reaction mixture containing Protein Phosphatase Inhibitor-2 (PPI-2) (Calbiochem) (45 ng), rabbit GSK-3β protein (New England Biolabs) (0.75 units) and ^33P-ATP (1 μCi) in 50 mM Tris-HCl (pH 8.0), 10 mM MgCl2, 0.1% BSA, 1 mM DTT and 100 μM Sodium Vanadate. The mixture was reacted for 90 minutes at 30° C. to allow phosphorylation of the PPI-2 protein and then the protein in the reaction was precipitated using 10% TCA. The precipitated protein was collected on filter plates (MultiScreen-DV/Millipore), which were subsequently washed. Finally, the radioactivity was quantified using a TopCount Scintillation Counter (Packard). […] Staurosporine or Valproate, known inhibitors of GSK-3β, were used as a positive control for screening.", "units": {"inhibition at 0.1 µM": "%"}, "values": [
      {"smiles": "O=C1NC(=O)C(c2cn(CCCO)c3ncccc23)=C1c1n[nH]c2ccccc12", "note": "[Cpd 6, 3-[1-(3-hydroxypropyl)-1H-pyrrolo[2,3-b]pyridin-3-yl]-4-(1H-indazol-3-yl)-1H-pyrrole-2,5-dione]", "inhibition at 0.1 µM": 56}
    ]},
    {"biological_target": "T1, recombinant rabbit GSK-3β protein", "assay": "Glycogen Synthase Kinase-3 Assay (33P phosphorylation of PPI-2)", "type": "biochemical", "conditions": "@1 μM; two numbers = different days", "method": "as §1, §2", "units": {"inhibition at 1 µM": "%"}, "values": [
      {"smiles": "COc1ncc(C2=C(c3cn(CCCc4cccs4)c4ncccc34)C(=O)NC2=O)c(OC)n1", "note": "[Cpd 74, 3-(2,4-Dimethoxy-pyrimidin-5-yl)-4-[1-(3-thiophen-2-yl-propyl)-1H-pyrrolo[2,3-b]pyridin-3-yl]-pyrrole-2,5-dione]", "inhibition at 1 µM": 39},
      {"smiles": "O=C1NC(=O)C(c2cn(CCCO)c3ncccc23)=C1c1c[nH]c(=O)[nH]c1=O", "note": "[Cpd 68, 5-{4-[1-(3-Hydroxy-propyl)-1H-pyrrolo[2,3-b]pyridin-3-yl]-2,5-dioxo-2,5-dihydro-1H-pyrrol-3-yl}-1H-pyrimidine-2,4-dione]", "inhibition at 1 µM": 43}
    ]},
    {"biological_target": "T1, recombinant rabbit GSK-3β protein", "assay": "Glycogen Synthase Kinase-3 Assay (33P phosphorylation of PPI-2)", "type": "biochemical", "conditions": "two numbers = data obtained on different days", "method": "as §1, §2", "values": [
      {"smiles": "O=C1NC(=O)C(c2cn(CCCO)c3ncccc23)=C1c1ccccc1C(F)(F)F", "note": "[Cpd 11, 3-[1-(3-hydroxypropyl)-1H-pyrrolo[2,3-b]pyridin-3-yl]-4-[2-(trifluoromethyl)phenyl]-1H-pyrrole-2,5-dione]", "IC50": "4 nM"},
      {"smiles": "O=C1NC(=O)C(c2cn(CCCO)c3ncccc23)=C1c1ccc(F)cc1Cl", "note": "[Cpd 10, 3-(2-chloro-4-fluorophenyl)-4-[1-(3-hydroxypropyl)-1H-pyrrolo[2,3-b]pyridin-3-yl]-1H-pyrrole-2,5-dione]", "IC50": "10 nM"},
      {"smiles": "O=C1NC(=O)C(c2cn(CCCO)c3ncccc23)=C1c1ccco1", "note": "[Cpd 53, 3-Furan-2-yl-4-[1-(3-hydroxy-propyl)-1H-pyrrolo[2,3-b]pyridin-3-yl]-pyrrole-2,5-dione]", "IC50": "211 nM and 143 nM"},
      {"smiles": "O=C1NC(=O)C(c2cn(CCCc3ccccc3)c3ncccc23)=C1c1cc2n(n1)CCC2", "note": "[Cpd 59, 3-(5,6-Dihydro-4H-pyrrolo[1,2-b]pyrazol-2-yl)-4-[1-(3-phenyl-propyl)-1H-pyrrolo[2,3-b]pyridin-3-yl]-pyrrole-2,5-dione]", "IC50": "519 nM and 424 nM"},
      {"smiles": "O=C1NC(=O)C(c2cn(CCCO)c3ncccc23)=C1c1cc[nH]c1", "note": "[Cpd 24, 4-[1-(3-hydroxypropyl)-1H-pyrrolo[2,3-b]pyridin-3-yl]-[3,3′-bi-1H-pyrrole]-2,5-dione]", "IC50": "15 nM and 8 nM"},
      {"smiles": "O=C1NC(=O)C(c2cn(CCCO)c3ncccc23)=C1c1cccs1", "note": "[Cpd 14, 3-[1-(3-hydroxypropyl)-1H-pyrrolo[2,3-b]pyridin-3-yl]-4-(2-thienyl)-1H-pyrrole-2,5-dione]", "IC50": "6 nM"},
      {"smiles": "COc1ncc(C2=C(c3cn(CCCOc4ccccc4)c4ncccc34)C(=O)NC2=O)c(OC)n1", "note": "[Cpd 76, 3-(2,4-Dimethoxy-pyrimidin-5-yl)-4-[1-(3-phenoxy-propyl)-1H-pyrrolo[2,3-b]pyridin-3-yl]-pyrrole-2,5-dione]", "IC50": "43 nM and 59 nM"},
      {"smiles": "COc1ncc(C2=C(c3cn(CCCc4ccccc4)c4ncccc34)C(=O)NC2=O)c(OC)n1", "note": "[Cpd 57, 3-(2,4-Dimethoxy-pyrimidin-5-yl)-4-[1-(3-phenyl-propyl)-1H-pyrrolo[2,3-b]pyridin-3-yl]-pyrrole-2,5-dione]", "IC50": "15 nM and 10 nM"},
      {"smiles": "CCn1cc(C2=C(c3cn(CCCO)c4ncccc34)C(=O)NC2=O)c2cccnc21", "note": "[Cpd 7, 3-(1-ethyl-1H-pyrrolo[2,3-b]pyridin-3-yl)-4-[1-(3-hydroxypropyl)-1H-pyrrolo[2,3-b]pyridin-3-yl]-1H-pyrrole-2,5-dione]", "IC50": "51 nM"},
      {"smiles": "O=C1NC(=O)C(c2cn(CCCO)c3ncccc23)=C1c1ccoc1", "note": "[Cpd 67, 3-Furan-3-yl-4-[1-(3-hydroxy-propyl)-1H-pyrrolo[2,3-b]pyridin-3-yl]-pyrrole-2,5-dione]", "IC50": "140 nM and 59 nM"},
      {"smiles": "O=C1NC(=O)C(c2cn(CCCO)c3ncccc23)=C1c1cc2ccccc2s1", "note": "[Cpd 43, 3-Benzo[b]thiophen-2-yl-4-[1-(3-hydroxy-propyl)-1H-pyrrolo[2,3-b]pyridin-3-yl]-pyrrole-2,5-dione]", "IC50": "198 nM and 126 nM"},
      {"smiles": "COc1ncc(C2=C(c3cn(CCCC#N)c4ncccc34)C(=O)NC2=O)c(OC)n1", "note": "[Cpd 62, 4-{3-[4-(2,4-Dimethoxy-pyrimidin-5-yl)-2,5-dioxo-2,5-dihydro-1H-pyrrol-3-yl]-pyrrolo[2,3-b]pyridin-1-yl}-butyronitrile]", "IC50": "36 nM and 35 nM"},
      {"smiles": "O=C1NC(=O)C(c2cn(CCCO)c3ncccc23)=C1c1cncnc1", "note": "[Cpd 41, 3-[1-(3-Hydroxy-propyl)-1H-pyrrolo[2,3-b]pyridin-3-yl]-4-pyrimidin-5-yl-pyrrole-2,5-dione]", "IC50": "37 nM and 42 nM"},
      {"smiles": "O=C1NC(=O)C(c2cn(CCCO)c3ncccc23)=C1c1ccn(CCCO)n1", "note": "[Cpd 16, 3-[1-(3-hydroxypropyl)-1H-pyrazol-3-yl]-4-[1-(3-hydroxypropyl)-1H-pyrrolo[2,3-b]pyridin-3-yl]-1H-pyrrole-2,5-dione]", "IC50": "100 nM"},
      {"smiles": "O=C1NC(=O)C(c2cn(CCCO)c3ncccc23)=C1c1cc2n(n1)CCC2", "note": "[Cpd 50, 3-(5,6-Dihydro-4H-pyrrolo[1,2-b]pyrazol-2-yl)-4-[1-(3-hydroxy-propyl)-1H-pyrrolo[2,3-b]pyridin-3-yl]-pyrrole-2,5-dione]", "IC50": "88 nM and 107 nM"},
      {"smiles": "O=C1NC(=O)C(c2cn(CCCc3ccccc3)c3ncccc23)=C1C1=CCCCO1", "note": "[Cpd 61, 3-(5,6-Dihydro-4H-pyran-2-yl)-4-[1-(3-phenyl-propyl)-1H-pyrrolo[2,3-b]pyridin-3-yl]-pyrrole-2,5-dione]", "IC50": "714 nM and 635 nM"},
      {"smiles": "Cn1ccc(C2=C(c3cn(CCCO)c4ncccc34)C(=O)NC2=O)c1", "note": "[Cpd 46, 4-[1-(3-Hydroxy-propyl)-1H-pyrrolo[2,3-b]pyridin-3-yl]-1′-methyl-1′H-[3,3′]bipyrrolyl-2,5-dione]", "IC50": "38 nM and 37 nM"},
      {"smiles": "O=C1NC(=O)C(c2cn(CCCc3ccccc3)c3ncccc23)=C1c1cncnc1", "note": "[Cpd 58, 3-[1-(3-Phenyl-propyl)-1H-pyrrolo[2,3-b]pyridin-3-yl]-4-pyrimidin-5-yl-pyrrole-2,5-dione]", "IC50": "366 nM and 344 nM"},
      {"smiles": "Cn1ccc(C2=C(c3cn(CCCO)c4ncccc34)C(=O)NC2=O)n1", "note": "[Cpd 26, 3-[1-(3-hydroxypropyl)-1H-pyrrolo[2,3-b]pyridin-3-yl]-4-(1-methyl-1H-pyrazol-3-yl)-1H-pyrrole-2,5-dione]", "IC50": "70 nM and 120 nM"},
      {"smiles": "N#CCCCn1cc(C2=C(c3cnccn3)C(=O)NC2=O)c2cccnc21", "note": "[Cpd 63, 4-[3-(2,5-Dioxo-4-pyrazin-2-yl-2,5-dihydro-1H-pyrrol-3-yl)-pyrrolo[2,3-b]pyridin-1-yl]-butyronitrile]", "IC50": "77 nM and 102 nM"},
      {"smiles": "O=C1NC(=O)C(c2cn(CCCO)c3ncccc23)=C1c1ccc(O)c(O)c1", "note": "[Cpd 32, 3-(3,4-dihydroxyphenyl)-4-[1-(3-hydroxypropyl)-1H-pyrrolo[2,3-b]pyridin-3-yl]-1H-pyrrole-2,5-dione]", "IC50": "67 nM and 95 nM"},
      {"smiles": "COCCn1cc(C2=C(c3cnc(OC)nc3OC)C(=O)NC2=O)c2cccnc21", "note": "[Cpd 71, 3-(2,4-Dimethoxy-pyrimidin-5-yl)-4-[1-(2-methoxy-ethyl)-1H-pyrrolo[2,3-b]pyridin-3-yl]-pyrrole-2,5-dione]", "IC50": "360 nM"},
      {"smiles": "O=C1NC(=O)C(c2cn(CCCO)c3ncccc23)=C1c1cc(Cl)sc1Cl", "note": "[Cpd 15, 3-(2,5-dichloro-3-thienyl)-4-[1-(3-hydroxypropyl)-1H-pyrrolo[2,3-b]pyridin-3-yl]-1H-pyrrole-2,5-dione]", "IC50": "6 nM"},
      {"smiles": "O=C1NC(=O)C(c2cn(CCCO)c3ncccc23)=C1c1ccn(Cc2ccccc2)c1", "note": "[Cpd 48, 1′-Benzyl-4-[1-(3-hydroxy-propyl)-1H-pyrrolo[2,3-b]pyridin-3-yl]-1′H-[3,3′]bipyrrolyl-2,5-dione]", "IC50": "47 nM and 38 nM"}
    ]}
  ]
}
